PubChem BioAssay AID1745844 (Carcinogenic Potency Database (CPDB), 2022)
The source made the active and inactive calls. No rule for the calls is given here.

Test system: rodent lifetime carcinogenesis bioassay, tumor incidence TD50
Experiment: chronic cancer bioassays in animals – CPDB, compiled studies (AID 1745844)
Conditions: by gavage, dosed 104 weeks, study length 104 weeks

Compound COC1COC(OC2COC(OC3COC(OC4COC(OC)C(OS(=O)(=O)O)C4OS(=O)(=O)O)C(OC4OC(C(=O)O)C(OC)C(OS(=O)(=O)O)C4OS(=O)(=O)O)C3OS(=O)(=O)O)C(OS(=O)(=O)O)C2OS(=O)(=O)O)C(OS(=O)(=O)O)C1OS(=O)(=O)O (configuration not stated) has a TD50 (mouse, strain B6C3F1, females, site: all sites, lesion: hemangioma + hemangiosarcoma) of 1700 mg/kg/day, a TD50 (mouse, strain B6C3F1, females, site: all sites, lesion: hemangioma) of 4340 mg/kg/day and a TD50 (mouse, strain B6C3F1, females, site: all sites, lesion: malignant lymphoma) of 927 mg/kg/day. The TD50 (mouse, strain B6C3F1, females, site: any site (literature study), lesion: several types, types named in the paper) was 660 mg/kg/day, the TD50 (mouse, strain B6C3F1, females, site: liver, lesion: hemangiosarcoma + hepatocellular adenoma + hepatocellular carcinoma) was 663 mg/kg/day and the TD50 (mouse, strain B6C3F1, females, site: liver, lesion: hemangiosarcoma) was 3160 mg/kg/day. The TD50 (mouse, strain B6C3F1, females, site: liver, lesion: hepatocellular adenoma + hepatoblastoma + hepatocellular carcinoma) was 867 mg/kg/day, the TD50 (mouse, strain B6C3F1, females, site: liver, lesion: hepatocellular adenoma + hepatocellular carcinoma) was 867 mg/kg/day and the TD50 (mouse, strain B6C3F1, females, site: liver, lesion: hepatocellular adenoma) was 991 mg/kg/day. It also gave a TD50 (mouse, strain B6C3F1, males, site: all sites, lesion: hemangiosarcoma) of 1340 mg/kg/day, a TD50 (mouse, strain B6C3F1, males, site: any site (literature study), lesion: several types, types named in the paper) of 297 mg/kg/day and a TD50 (mouse, strain B6C3F1, males, site: liver, lesion: hemangiosarcoma) of 1090 mg/kg/day. For the same compound, the TD50 (mouse, strain B6C3F1, males, site: liver, lesion: hepatocellular adenoma + hepatoblastoma + hepatocellular carcinoma) was 538 mg/kg/day, the TD50 (mouse, strain B6C3F1, males, site: liver, lesion: hepatocellular adenoma + hepatocellular carcinoma) was 499 mg/kg/day and the TD50 (mouse, strain B6C3F1, males, site: lung, lesion: alveolar/bronchiolar adenoma + alveolar/bronchiolar carcinoma) was 8000 mg/kg/day. The TD50 (rat, strain Fischer 344, females, site: any site (literature study), lesion: several types, types named in the paper) was 1980 mg/kg/day (inactive) and the carcinogen call (rat, strain Fischer 344, males, site: any site (literature study), lesion: several types, types named in the paper) was “negative (inactive)”.
